# Literature values as cited in patent US6054469A, “Substituted tetrahydropyridine derivatives acting on 5-HT receptors” (Merck Sharp & Dohme Ltd., priority 1995, dated 2000).
# Conditions: therapeutic doses
smiles,measurement,value
CNS(=O)(=O)Cc1ccc2[nH]cc(CCN(C)C)c2c1 [sumatriptan],adverse events on administration to humans,adverse cardiovascular events
